Experimental findings from patent US8865734B2 (priority 2010, dated 2014) are described below.

The subject of data set [1] is M. tuberculosis inside the host macrophage. The data set is described as follows: QIM: Quantification of Intracellular Mycobacteria (intracellular growth assay, phenotypic cell-based). The following applies: Mycobacterium tuberculosis; MIC, 80% bacterial growth inhibition; intracellular growth; read-out: QIM. The method in brief: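 Dose-response testing of intracellular mycobacterial replication in infected macrophages, a cell-based screening format; MIC is defined as the lowest concentration achieving 80% inhibition of bacterial growth.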

In data set [2] the test system is in vitro grown Mycobacteria (M. tuberculosis). Kind of data set: QUM: Quantification of in vitro grown Mycobacteria (in vitro growth fluorescence assay). Format: cell-based. The following applies: Mycobacterium tuberculosis; MIC, 80% bacterial growth inhibition; in vitro growth; read-out: QUM. The method in brief:
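Mycobacterium tuberculosis grown in vitro was quantified by fluorescence across compound dose responses. MIC is defined as the minimum concentration producing 80% growth inhibition.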

In brackets after ≈: the same amount, converted by molar mass. A value given as a limit tells only on which side of the number the result lay.

For `CCc1nc2ccccn2c1C(=O)NCc1ccc(N2CCN(c3ccc(OC(F)(F)F)cc3)CC2)cc1` [Compound 181, 2-Ethyl-N-(4-(4-(4-(trifluoromethoxy)phenyl)piperazin-1-yl)benzyl)imidazo[1,2-a]pyridine-3-carboxamide], the melting point (usually the temperature, or range, at which the solid turns liquid) is 178 to 179 °C. In addition, in data set [1], the MIC is below 1 µM. The MIC in data set [2] was below 1 µM.

With `CCc1nc2ccc(Br)cn2c1C(=O)NCc1ccc(N2CCOCC2)cc1` [Compound 315, 6-Bromo-2-ethyl-N-(4-morpholinobenzyl)imidazo[1,2-a]pyridine-3-carboxamide], the melting point stood at 228.2 °C. Also, in data set [1], the MIC was below 1 µM. For the same compound, in data set [2], the MIC was below 1 µM.

The compound `CCc1nc2ccc(Cl)cn2c1C(=O)NCc1ccc(N2CCC(CO)CC2)cc1` [Compound 279, 6-Chloro-2-ethyl-N-(4-(4-(hydroxymethyl)piperidin-1-yl)benzyl)imidazo[1,2-a]pyridine-3-carboxamide] came in with a melting point of 161.1 °C. For the same compound, the MIC in data set [2] was above 20 µM.

The compound `CCc1nc2ccc(C)cn2c1C(=O)NCc1ccc(N2CCN(c3ccc(F)cc3)CC2)cc1` [Compound 308, 2-Ethyl-N-(4-(4-(4-fluorophenyl)piperazin-1-yl)benzyl)-6-methylimidazo[1,2-a]pyridine-3-carboxamide] gave a melting point of 187.6 °C. Besides, the MIC in data set [2] is below 1 µM.

The compound `CCc1nc2cc(Cl)ccn2c1C(=O)NCc1ccc2oc(C3CCCCC3)nc2c1` [Compound 340, 7-Chloro-N-((2-cyclohexylbenzo[d]oxazol-5-yl)methyl)-2-ethylimidazo[1,2-a]pyridine-3-carboxamide] registered a melting point of 163 °C. The MIC in data set [2] was below 1 µM.

In turn, `CCc1nc2cc(Cl)ccn2c1C(=O)NCc1ccc(N2CCC(Cc3ccccc3)CC2)cc1` [Compound 294, N-(4-(4-Benzylpiperidin-1-yl)benzyl)-7-chloro-2-ethylimidazo[1,2-a]pyridine-3-carboxamide] had a melting point of 63.8 °C. In addition, in data set [2], the MIC fell in the range of 1 to 20 µM (≈ 0.487 to 9.74 µg/mL).

As for `CCc1nc2ccccn2c1C(=O)NCc1ccc(N2CCC(c3ccc(OC(F)(F)F)cc3)CC2)cc1` [Compound 288, 2-Ethyl-N-(4-(4-(4-(trifluoromethoxy)phenyl)piperidin-1-yl)benzyl)imidazo[1,2-a]pyridine-3-carboxamide], the melting point turned out to be 146 °C. The MIC in data set [2] was below 1 µM.

On to `CCc1nc2cc(Cl)ccn2c1C(=O)NCc1ccc(N2CCC(c3ccc(Cl)cc3)CC2)cc1` [Compound 338, 7-Chloro-N-(4-(4-(4-chlorophenyl)piperidin-1-yl)benzyl)-2-ethylimidazo[1,2-a]pyridine-3-carboxamide], for which the melting point worked out at 177 °C. In addition, the MIC in data set [2] is below 1 µM.

Take `CCc1nc2cc(C)ccn2c1C(=O)NCc1ccc(Oc2ccc(OC(F)(F)F)cc2)cc1` [Compound 256, 2-Ethyl-7-methyl-N-(4-(4-(trifluoromethoxy)phenoxy)benzyl)imidazo[1,2-a]pyridine-3-carboxamide]: the melting point was determined as 133.6 °C. For the same compound, the MIC in data set [2] was below 1 µM.

The compound `CCc1nc2cc(Cl)ccn2c1C(=O)NCc1ccc(N2CCC(O)(c3ccc(F)cc3)CC2)cc1` [Compound 342, 7-Chloro-2-ethyl-N-(4-(4-(4-fluorophenyl)-4-hydroxypiperidin-1-yl)benzyl)imidazo[1,2-a]pyridine-3-carboxamide] displayed a melting point of 199 °C. Besides, the MIC in data set [2] was below 1 µM.

In turn, `CCc1nc2cc(Cl)ccn2c1C(=O)NCc1ccc(N2CCC(C(N)=O)CC2)cc1` [Compound 344, N-(4-(4-Carbamoylpiperidin-1-yl)benzyl)-7-chloro-2-ethylimidazo[1,2-a]pyridine-3-carboxamide] registered a melting point of 244 °C. For the same compound, in data set [2], the MIC lay within 1 to 20 µM (≈ 0.44 to 8.8 µg/mL).

`CCc1nc2ccc(F)cn2c1C(=O)NCc1ccc(Oc2ccc(OC(F)(F)F)cc2)cc1` [Compound 253, 2-Ethyl-6-fluoro-N-(4-(4-(trifluoromethoxy)phenoxy)benzyl)imidazo[1,2-a]pyridine-3-carboxamide] registered a melting point of 133.4 °C. The MIC in data set [2] is below 1 µM.

On to `CCc1nc2ccc(Cl)cn2c1C(=O)NCc1ccc2oc(C3CCCCC3)nc2c1` [Compound 339, 6-Chloro-N-((2-cyclohexylbenzo[d]oxazol-5-yl)methyl)-2-ethylimidazo[1,2-a]pyridine-3-carboxamide], for which the melting point came out at 169.7 °C. Besides, in data set [2], the MIC is below 1 µM.

In turn, `CCc1nc2ccc(Cl)cn2c1-c1nc(Cc2ccc(Oc3ccc(F)cc3)cc2)no1` [Compound 245, 5-(6-Chloro-2-ethylimidazo[1,2-a]pyridin-3-yl)-3-(4-(4-fluorophenoxy)benzyl)-1,2,4-oxadiazole] gave a melting point of 129.9 °C. For the same compound, in data set [2], the MIC is 1 to 20 µM (≈ 0.449 to 8.98 µg/mL).

As to `CCc1nc2ccc(Cl)cn2c1C(=O)NCc1ccc(N2CCN3CCCC3C2)cc1` (stereo not drawn) [Compound 266, 6-Chloro-2-ethyl-N-(4-(hexahydropyrrolo[1,2-a]pyrazin-2(1H)-yl)benzyl)imidazo[1,2-a]pyridine-3-carboxamide], the melting point was determined as 163 °C. Further, in data set [2], the MIC was above 20 µM.

`CCc1nc2ccc(Cl)cn2c1C(=O)NCc1ccc(N2CCC(C(N)=O)CC2)cc1` [Compound 343, N-(4-(4-Carbamoylpiperidin-1-yl)benzyl)-6-chloro-2-ethylimidazo[1,2-a]pyridine-3-carboxamide]: the melting point is 257.5 °C. Further, in data set [2], the MIC is below 1 µM.

Compound `CCc1nc2ccc(Br)cn2c1C(=O)NCc1ccc(Oc2ccc(OC(F)(F)F)cc2)cc1` [Compound 254, 6-Bromo-2-ethyl-N-(4-(4-(trifluoromethoxy)phenoxy)benzyl)imidazo[1,2-a]pyridine-3-carboxamide] came in with a melting point of 152.9 °C. The MIC in data set [2] is below 1 µM.

`C=C1CCN(c2ccc(CNC(=O)c3c(CC)nc4cc(Cl)ccn34)cc2)CC1` [Compound 271, 7-Chloro-2-ethyl-N-(4-(4-methylenepiperidin-1-yl)benzyl)imidazo[1,2-a]pyridine-3-carboxamide] had a melting point of 168.3 °C. In data set [2], the MIC was below 1 µM.

For `CCc1nc2ccc(Cl)cn2c1C(=O)NCc1ccc(N2CCC(c3ccccc3)CC2)cc1` [Compound 284, 6-Chloro-2-ethyl-N-(4-(4-phenylpiperidin-1-yl)benzyl)imidazo[1,2-a]pyridine-3-carboxamide], the melting point came out at 138.2 °C. Also, the MIC in data set [2] was below 1 µM.

Compound `CCc1nc2ccc(Cl)cn2c1C(=O)NCc1ccc(N2CCOCC2)c(Cl)c1` [Compound 349, 6-Chloro-N-(3-chloro-4-morpholinobenzyl)-2-ethylimidazo[1,2-a]pyridine-3-carboxamide] yielded a melting point of 175.5 °C. Also, the MIC in data set [2] was below 1 µM.

For `CCc1nc2ccc(Cl)cn2c1C(=O)NCc1ccc(N2CCC(O)(c3ccc(F)cc3)CC2)cc1` [Compound 341, 6-Chloro-2-ethyl-N-(4-(4-(4-fluorophenyl)-4-hydroxypiperidin-1-yl)benzyl)imidazo[1,2-a]pyridine-3-carboxamide], the melting point worked out at 173.5 °C. Besides, the MIC in data set [2] was below 1 µM.

`CCc1nc2ccc(C(F)(F)F)cn2c1C(=O)NCc1ccc(N2CCOCC2)cc1` [Compound 321, 2-Ethyl-N-(4-morpholinobenzyl)-6-(trifluoromethyl)imidazo[1,2-a]pyridine-3-carboxamide] had a melting point of 207.6 °C. Further, the MIC in data set [2] is below 1 µM.

Turning to `CCc1nc2ccc(Cl)cn2c1C(=O)NCc1ccc(N2CCC(C(F)(F)F)CC2)cc1` [Compound 275, 6-Chloro-2-ethyl-N-(4-(4-(trifluoromethyl)piperidin-1-yl)benzyl)imidazo[1,2-a]pyridine-3-carboxamide], the melting point stood at 197.9 °C. Moreover, the MIC in data set [2] was in the range of 1 to 20 µM (≈ 0.465 to 9.3 µg/mL).

The compound `CCc1nc2ccccn2c1C(=O)NCc1ccc(OCc2ccc(OC(F)(F)F)cc2)cc1` [Compound 260, 2-Ethyl-N-(4-(4-(trifluoromethoxy)benzyloxy)benzyl)imidazo[1,2-a]pyridine-3-carboxamide] returned a melting point of 138.7 °C. For the same compound, the MIC in data set [2] was below 1 µM.

The compound `CCc1nc2ccc(Cl)cn2c1C(=O)NCc1ccc(N2CCC(COc3ccc(OC(F)(F)F)cc3)CC2)cc1` [Compound 298, 6-chloro-2-ethyl-N-(4-(4-((4-(trifluoromethoxy)phenoxy)methyl)piperidin-1-yl)benzyl)imidazo[1,2-a]pyridine-3-carboxamide] gave a melting point of 183.6 °C. The MIC in data set [2] is below 1 µM.

In the case of `CCc1nc2cc(Cl)ccn2c1C(=O)NCc1ccc(N2CCC(C(F)(F)F)CC2)cc1` [Compound 276, 7-Chloro-2-ethyl-N-(4-(4-(trifluoromethyl)piperidin-1-yl)benzyl)imidazo[1,2-a]pyridine-3-carboxamide], the melting point amounted to 209.4 °C. The MIC in data set [2] was above 20 µM.

As for `CCc1nc2cc(Cl)ccn2c1C(=O)NCc1ccc(N2CCC(c3ccccc3)CC2)cc1` [Compound 283, 7-Chloro-2-ethyl-N-(4-(4-phenylpiperidin-1-yl)benzyl)imidazo[1,2-a]pyridine-3-carboxamide], the melting point is 164.5 °C. In data set [2], the MIC was below 1 µM.

The compound `CCc1nc2c(OC(F)F)cccn2c1C(=O)NCc1ccc(N2CCOCC2)cc1` [Compound 319, 8-(Difluoromethoxy)-2-ethyl-N-(4-morpholinobenzyl)imidazo[1,2-a]pyridine-3-carboxamide] came in with a melting point of 163 °C. In data set [2], the MIC fell in the range of 1 to 20 µM (≈ 0.43 to 8.61 µg/mL).

The compound `CCc1nc2cc(Cl)ccn2c1C(=O)NCc1ccc(N2CCC(F)(F)CC2)cc1` [Compound 278, 7-Chloro-N-(4-(4,4-difluoropiperidin-1-yl)benzyl)-2-ethylimidazo[1,2-a]pyridine-3-carboxamide] displayed a melting point of 166.3 °C. The MIC in data set [2] was in the range of 1 to 20 µM (≈ 0.433 to 8.66 µg/mL).
